Data on 15 compounds can be found in patent US5147876A, “2,6-di,2,4,6-, 2,5,6-tri and 2,4,5,6-tetra-substituted pyrimidines, their pharmaceutically acceptable salts, pharmaceutical compositions containing same and their use in the treatment of neurological diseases” (Mitsui Petrochemical Industries, Ltd., priority 1988, dated 1992).

Data set [1] concerns neuro-2a (mouse neuroblastoma cells). Kind of data set: Action on neuro-2a: proportion of cells containing outgrown neurites. In kind it is cell-based. The settings on record: mean ± S.D. The method in brief:
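Read-out is the percentage of neurite-bearing cells (neurite ≥2× long cell diameter), counted microscopically over more than 200 cells per well. Before fixation and staining, neuro-2a cells (1,000/well, DMEM + 10% FCS) were cultured for one day at 37 °C; up to six compound concentrations, three runs each.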

Data set [2] concerns NS-20Y (mouse neuroblastoma cells). The experiment in a line: Activity on NS-20Y cells: appearance of neurites. In kind it is cell-based. On the procedure: The effects of the compounds of this invention on neuroblastoma cells were examined by the following method.
Mouse neuro 2a cells in the logarithmic growth period in the Dulbecco's modified Eagle's medium DMEM, containing 100 units/ml of penicillin G sodium and 100 micrograms/ml of streptomycin sulfate]containing 10 % of FCS were seeded in a 48-well plate so that the number of cells was 1,000 cells/well, and cultured for one day in 0.25 ml of the culture fluid in each well in an incubator containing 5 % of carbon dioxide gas in air at 37° C. Then, a 4 % aqueous glutaraldehyde solution in the same amount as a medium (0.25 ml) was added, and the culture fluid was left to stand at room temperature for 2 hours to fix the cells. After washing with water, a 0.05 % aqueous solution of methylene blue was added to stain the cells Under a microscope, the number of cells containing outgrown neurites (cells having at least one neurite with a length of at least two times as large as the long diameter of the cell) was counted visually, and the proportion of these cells in the entire cells was calculated. The well was observed over 5 or more visual fields (at least 2 % of the entire surface area of the well) continuous to the left and right from a mark put at the center of the well, and more than 200 cells was counted. One drug compound was used in 6 different concentrations at most, and three runs were conducted for each concentrations.
Mouse neuroblastoma cells NS-20Y were similarly cultured in a dish coated with polyornithine, and the effects of the compounds were examined.

A further data set can be described thus: Acute toxicity on mice. The settings on record: mouse, in vivo, ip, 24 hours after administration; read-out: Estimated LD50. Format: in vivo. How it is done: The acute toxicity of the compounds of the invention was examined by the following method.
Male ddy-strain 5-week old mice, 4-6- per group, were used as experimental animals. Each of the compounds was intraperitoneally (i.p.), and the toxicity of the compound was assessed 24 hours after the administration.

Where only a bound is given, the exact number is not on record here.

With `CCCCN(CCCC)c1nccc(N(C)C(=O)c2ccccc2)n1` [Compound 112], the “Number of cells having neurites with a length at least two times the diameter of each cell/total number of cells” value (shortened to “Number … of each cell/total number of cells”) in data set [1] (0.03 mM) worked out at 4.8 ± 0.1%; in data set [1] (0.1 mM) it was 18.6 ± 5.2%; in data set [1] (0.3 mM), 2.6 ± 0.6%; in data set [1] (1 mM) it was 7.6 ± 4.9%. In addition, the “Number of cells in which neurites appeared/total number of cells” value in data set [2] (24 hours, 0.025 mM) is 4/51; in data set [2] (48 hours, 0.01 mM), 4/49; in data set [2] (48 hours, 0.025 mM), 9/50. Further, the median lethal dose (LD50) at 24 h in the data set “Acute toxicity on mice” was more than 1000 mg/kg.

As to `CN(C(=O)c1ccccc1)c1ccnc(N2CCCC2)n1` [Compound 120], the “Number … of each cell/total number of cells” value in data set [1] (0.1 mM) is given as 4.9 ± 1.0%; in data set [1] (0.3 mM), 7.5 ± 4.1%. In addition, the “Number of cells in which neurites appeared/total number of cells” value in data set [2] (24 hours, 0.5 mM) was 23/50; in data set [2] (48 hours, 0.5 mM) it was 4/50. For the same compound, the LD50 at 24 h in “Acute toxicity on mice” is more than 1000 mg/kg.

As to `CC(=O)N(C)c1ccnc(N2CCCCC2)n1` [Compound 128], the “Number … of each cell/total number of cells” value amounted to 9.9 ± 0.6% in data set [1] (0.3 mM), 9.1 ± 0.7% in data set [1] (0.5 mM), 19.8 ± 2.8% in data set [1] (1 mM) and 14.3 ± 2.4% in data set [1] (2 mM). The “Number of cells in which neurites appeared/total number of cells” value in data set [2] (24 hours, 0.3 mM) is reported as 4/49; in data set [2] (24 hours, 1.0 mM), 23/55; in data set [2] (48 hours, 0.3 mM) it was 31/50; in data set [2] (48 hours, 0.5 mM), 21/50. Moreover, in the data set “Acute toxicity on mice”, the 50% lethal dose (LD50) at 24 h was more than 1000 mg/kg.

Regarding `CN(C(=O)c1ccccc1)c1ccnc(N2CCCCC2)n1` [Compound 136], the “Number … of each cell/total number of cells” value in data set [1] (0.1 mM) was 11.6 ± 6.3%; in data set [1] (0.3 mM), 12.1 ± 2.9%. Also, the “Number of cells in which neurites appeared/total number of cells” value in data set [2] (24 hours, 0.1 mM) is on record as 9/50; in data set [2] (24 hours, 0.4 mM), 42/50; in data set [2] (48 hours, 0.4 mM) it was 15/50. In addition, the 50% lethal dose (LD50) at 24 h in “Acute toxicity on mice” is more than 1000 mg/kg.

For the compound `CC1CCN(c2nccc(N(C)C(=O)c3ccccc3)n2)CC1` [Compound 144], the “Number … of each cell/total number of cells” value was 13.7 ± 7.8% in data set [1] (0.1 mM) and 33.8 ± 8.6% in data set [1] (0.3 mM). The “Number of cells in which neurites appeared/total number of cells” value was 37/50 in data set [2] (24 hours, 0.1 mM); 6/50 in data set [2] (48 hours, 0.025 mM); 8/52 in data set [2] (48 hours, 0.05 mM); 31/50 in data set [2] (48 hours, 0.1 mM). Besides, the LD50 at 24 h in “Acute toxicity on mice” is more than 1000 mg/kg.

Consider `CN(C(=O)c1ccccc1)c1ccnc(N2CCC(C(C)(C)C)CC2)n1` [Compound 152], for which the “Number … of each cell/total number of cells” value in data set [1] (0.03 mM) worked out at 6.2 ± 2.3%; in data set [1] (0.1 mM) it was 33.8 ± 4.7%. Besides, the “Number of cells in which neurites appeared/total number of cells” value in data set [2] (24 hours, 0.05 mM) is given as 3/50; in data set [2] (48 hours, 0.025 mM), 2/50. Moreover, the LD50 at 24 h in the data set “Acute toxicity on mice” is more than 1000 mg/kg.

Take `O=C(Nc1ccnc(N2CCC(c3ccccc3)CC2)n1)c1ccccc1` [Compound 160]: the “Number … of each cell/total number of cells” value came to 11.3 ± 6.3% in data set [1] (0.1 mM) and 6.7 ± 4.3% in data set [1] (0.3 mM). The “Number of cells in which neurites appeared/total number of cells” value is on record as 10/53 in data set [2] (24 hours, 0.5 mM) and 2/50 in data set [2] (48 hours, 0.5 mM). Also, in “Acute toxicity on mice”, the 50% lethal dose (LD50) at 24 h was more than 1000 mg/kg.

`CN(C(=O)C=Cc1ccccc1)c1ccnc(N2CCC(c3ccccc3)CC2)n1` [Compound 170-2]: the “Number … of each cell/total number of cells” value in data set [1] (0.1 mM) worked out at 14.7 ± 1.1%; in data set [1] (0.3 mM), 5.6 ± 2.1%; in data set [1] (1 mM), 13.9 ± 3.0%. Besides, the “Number of cells in which neurites appeared/total number of cells” value was 3/50 in data set [2] (24 hours, 0.1 mM) and 2/50 in data set [2] (48 hours, 0.1 mM). In the data set “Acute toxicity on mice”, the LD50 at 24 h is 500 to 1000 mg/kg.

Take `CCN(C(=O)c1ccccc1)c1ccnc(N2CCC(c3ccccc3)CC2)n1` [Compound 176]: the entries for the “Number … of each cell/total number of cells” value in data set [1] (0.03 mM) and in data set [1] (0.1 mM) were 5.3 ± 1.9% and 3.2 ± 3.1%, respectively. In addition, the “Number of cells in which neurites appeared/total number of cells” value in data set [2] (24 hours, 0.1 mM) was 8/50; in data set [2] (48 hours, 0.02 mM) it was 2/50. Further, in “Acute toxicity on mice”, the 50% lethal dose (LD50) at 24 h was more than 1000 mg/kg.

With `CCCN(C(=O)c1ccccc1)c1ccnc(N2CCC(c3ccccc3)CC2)n1` [Compound 184], the figures for the “Number … of each cell/total number of cells” value in data set [1] (0.1 mM) and in data set [1] (0.3 mM) were 18.8 ± 4.7% and 16.0 ± 2.4%, respectively. Moreover, the “Number of cells in which neurites appeared/total number of cells” value in data set [2] (24 hours, 0.02 mM) is 8/50; in data set [2] (24 hours, 0.1 mM) it was 5/48; in data set [2] (48 hours, 0.02 mM), 3/50. The median lethal dose (LD50) at 24 h in the data set “Acute toxicity on mice” was more than 1000 mg/kg.

On to `O=C(c1ccccc1)N(Cc1ccccc1)c1ccnc(N2CCC(c3ccccc3)CC2)n1` [Compound 192], for which the figures for the “Number … of each cell/total number of cells” value in data set [1] (0.3 mM) and in data set [1] (1 mM) were 12.1 ± 1.5% and 14.6 ± 1.0%, respectively. Besides, the “Number of cells in which neurites appeared/total number of cells” value in data set [2] (24 hours, 0.4 mM) is on record as 23/50; in data set [2] (48 hours, 0.4 mM), 4/50. Further, the LD50 at 24 h in “Acute toxicity on mice” is 500 to 1000 mg/kg.

As for `CC(=O)N(C)c1ccnc(N2CCC(c3ccccc3)CC2)n1` [Compound 208], the “Number … of each cell/total number of cells” value amounted to 7.2 ± 2.3% in data set [1] (0.5 mM), 10.6 ± 1.5% in data set [1] (1 mM), 11.1 ± 1.2% in data set [1] (2 mM) and 8.0 ± 4.0% in data set [1] (3 mM). Moreover, the “Number of cells in which neurites appeared/total number of cells” value is recorded as 27/53 in data set [2] (24 hours, 0.1 mM); 17/51 in data set [2] (24 hours, 0.25 mM); 28/50 in data set [2] (48 hours, 0.1 mM). For the same compound, in “Acute toxicity on mice”, the 50% lethal dose (LD50) at 24 h was more than 1000 mg/kg.

With `CC(C)C(=O)N(C)c1ccnc(N2CCC(c3ccccc3)CC2)n1` [Compound 216], the entries for the “Number … of each cell/total number of cells” value in data set [1] (0.01 mM), in data set [1] (0.03 mM) and in data set [1] (0.1 mM) were 3.7 ± 0.4%, 6.3 ± 2.4% and 26.6 ± 5.6%, respectively. For the same compound, the “Number of cells in which neurites appeared/total number of cells” value in data set [2] (24 hours, 0.025 mM) is 3/49; in data set [2] (48 hours, 0.025 mM), 24/50; in data set [2] (48 hours, 0.05 mM), 20/50. For the same compound, the median lethal dose (LD50) at 24 h in the data set “Acute toxicity on mice” is more than 1000 mg/kg.

With `CN1C(=O)Cc2cnc(N3CCN(C(c4ccc(Cl)cc4)c4ccc(Cl)cc4)CC3)nc21` [Compound 3176], the “Number … of each cell/total number of cells” value was 7.3 ± 3.3% in data set [1] (0.03 mM), 23.1 ± 4.8% in data set [1] (0.1 mM), 21.2 ± 4.9% in data set [1] (0.3 mM) and 14.6 ± 5.0% in data set [1] (1 mM). In addition, the median lethal dose (LD50) at 24 h in “Acute toxicity on mice” was 500 to 1000 mg/kg.

As to `CN1C(=O)Cc2cnc(N3CCN(C(c4ccc(F)cc4)c4ccc(F)cc4)CC3)nc21` [Compound 3184], the “Number … of each cell/total number of cells” value in data set [1] (0.03 mM) was 3.7 ± 1.1%; in data set [1] (0.1 mM) it was 13.9 ± 2.3%; in data set [1] (0.3 mM), 18.4 ± 1.9%; in data set [1] (1 mM), 17.0 ± 2.1%. In addition, the median lethal dose (LD50) at 24 h in the data set “Acute toxicity on mice” is 500 to 1000 mg/kg.
